{"source": "paper PMC10017709", "about": "“Structural basis of selective cannabinoid CB2 receptor activation” (Nature Communications, 2023)", "key": {"CB2R-H95^2.65A": {"target": "CB2R-H95^2.65A (Homo sapiens, UniProt P34972, H95A)", "sequence (P34972 whole entry H95A)": "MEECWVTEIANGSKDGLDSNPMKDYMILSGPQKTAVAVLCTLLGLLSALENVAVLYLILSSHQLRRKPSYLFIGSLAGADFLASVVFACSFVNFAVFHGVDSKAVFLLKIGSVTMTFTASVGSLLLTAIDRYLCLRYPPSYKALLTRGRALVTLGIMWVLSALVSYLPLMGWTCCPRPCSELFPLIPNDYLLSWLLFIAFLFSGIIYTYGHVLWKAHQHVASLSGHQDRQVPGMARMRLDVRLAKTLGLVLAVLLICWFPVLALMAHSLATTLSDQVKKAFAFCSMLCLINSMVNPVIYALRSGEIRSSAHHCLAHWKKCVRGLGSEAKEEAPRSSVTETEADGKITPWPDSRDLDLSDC", "experiment": "[35S]GTPγS assay, CB2R H95A mutant", "format": "biochemical", "conditions": "H95A mutant"}, "CB2R-L185^ECL2H": {"target": "CB2R-L185^ECL2H (Homo sapiens, UniProt P34972, L185H)", "sequence (P34972 whole entry L185H)": "as the sequence (P34972 whole entry H95A) above, with A95H, L185H counted along it", "experiment": "[35S]GTPγS assay, CB2R L185H mutant", "format": "biochemical", "conditions": "L185H mutant"}, "CB2R WT": {"target": "CB2R WT (Homo sapiens, UniProt P34972)", "sequence (P34972 whole entry)": "as the sequence (P34972 whole entry H95A) above, with A95H counted along it", "experiment": "[35S]GTPγS G protein activation assay, CB2R WT", "format": "biochemical", "conditions": "for Emax (%): CB2R WT; for [35S]GTPγS binding, percentage of CP55,940: individual replicates"}, "CB1R QuadrupleTM1,7 [1]": {"target": "T1, CB1R QuadrupleTM1,7 (Homo sapiens, UniProt P21554, I119V/Q116K/S123C/T377K)", "T1 construct": "The WT CB1R and CB2R genes were subcloned into vector pcDNA3.1; HA signal peptide (N); expressed in transfected cells; host or cells: HEK293T (transient, membrane homogenates)", "T1 sequence (P21554 whole entry Q116K/I119V/S123C/T377K)": "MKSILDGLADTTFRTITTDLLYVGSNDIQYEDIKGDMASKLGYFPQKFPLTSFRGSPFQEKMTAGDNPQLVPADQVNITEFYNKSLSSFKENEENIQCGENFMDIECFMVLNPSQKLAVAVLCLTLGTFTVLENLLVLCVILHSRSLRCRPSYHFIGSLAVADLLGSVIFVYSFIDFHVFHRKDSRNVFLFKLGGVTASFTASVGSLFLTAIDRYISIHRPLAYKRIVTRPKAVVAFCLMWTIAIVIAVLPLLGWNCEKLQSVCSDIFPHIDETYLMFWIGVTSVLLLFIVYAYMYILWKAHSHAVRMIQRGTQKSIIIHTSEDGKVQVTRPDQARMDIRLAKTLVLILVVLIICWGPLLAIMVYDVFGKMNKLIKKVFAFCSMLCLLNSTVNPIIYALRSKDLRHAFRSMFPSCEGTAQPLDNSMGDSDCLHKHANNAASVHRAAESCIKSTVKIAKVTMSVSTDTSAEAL", "experiment": "[3H]CP55,940 displacement assay, CB1R quadruple mutant", "format": "binding"}, "CB1R-H270^ECL2L": {"target": "CB1R-H270^ECL2L (Homo sapiens, UniProt P21554, H270L)", "sequence (P21554 whole entry H270L)": "as the sequence (P21554 whole entry Q116K/I119V/S123C/T377K) above, with K116Q, V119I, C123S, H270L, K377T counted along it", "experiment": "[35S]GTPγS assay, CB1R H270L mutant", "format": "biochemical"}, "CB1R-L359^6.51V": {"target": "CB1R-L359^6.51V (Homo sapiens, UniProt P21554, L359V)", "sequence (P21554 whole entry L359V)": "as the sequence (P21554 whole entry Q116K/I119V/S123C/T377K) above, with K116Q, V119I, C123S, L359V, K377T counted along it", "experiment": "[3H]CP55,940 displacement assay, CB1R L359V mutant", "format": "binding", "conditions": "CB1R L3596.51V; 10 µM ligand; replicates 1-3"}, "hCB2R": {"target": "T2, hCB2R (Homo sapiens, UniProt P34972)", "T2 construct": "host or cells: CHO-K1 (CHOK1_hCB2bgal, PathHunter), membranes", "experiment": "[3H]RO6957022 competition association assay", "format": "binding", "conditions": "for percentage specific [3H]RO6957022 binding (competition association): individual replicates"}, "CB2R-Quadruple^TM1,7": {"target": "CB2R-Quadruple^TM1,7 (Homo sapiens, UniProt P34972, C40S/K279T/K33Q/V36I)", "sequence (P34972 whole entry K33Q/V36I/C40S/K279T)": "as the sequence (P34972 whole entry H95A) above, with K33Q, V36I, C40S, A95H, K279T counted along it", "experiment": "[35S]GTPγS assay, CB2R quadruple mutant", "format": "biochemical", "conditions": "for [35S]GTPγS binding: QuadrupleTM1,7, individual replicates", "method": "In short, transient HEK293T membrane homogenates (10 µg/well) were diluted in assay buffer (50 mM Tris-HCl (pH 7.4), 5 mM MgCl2, 150 mM NaCl, 1 mM EDTA, 0.05% BSA (w/v) and 1 mM DTT, freshly prepared every day) and were pretreated with 10 µg saponin and 1 µM GDP. For endocannabinoid samples, the membranes were additionally pretreated for 30 min with 50 µM PMSF before agonist addition. […] Basal receptor activity was determined in the presence of vehicle only (0.2% DMSO/acetonitrile). […] Filtration was performed, and filter-bound radioactivity was determined as described under [^3H]RO6957022 Competition Association Assays except for using ice-cold 50 mM Tris-HCl (pH 7.4), 5 mM MgCl2 buffer."}, "CB1R QuadrupleTM1,7 [2]": {"tested_on": "CB1R QuadrupleTM1,7", "experiment": "[35S]GTPγS assay, CB1R quadruple mutant", "format": "biochemical, human"}}, "note": "Values joined by “and” are separate entries in the source; they are usually repeats but may differ in a detail not shown here. Equal values may be shown once."}
{"smiles": "CC(C)CN1C(=O)CN(Cc2ccc(-c3ccc(F)c(CNC4CCOCC4)n3)cc2)C1=O", "note": "[LEI-102, 1-(4-(5-fluoro-6-(((tetrahydro-2H-pyran-4-yl)amino)methyl)pyridin-2-yl)benzyl)-3-isobutylimidazolidine-2,4-dione]", "values": [{"measurement": "EC50", "setting": "CB2R-H95^2.65A; <5 when curve fit not finished", "value": "> 10000", "unit": "nM"}, {"measurement": "pEC50", "setting": "CB2R-H95^2.65A; <5 when curve fit not finished", "value": "significantly reduced"}, {"measurement": "Emax (%)", "setting": "CB2R-H95^2.65A; at 10 µM compared to WT", "value": "64 ± 7", "unit": "%"}, {"measurement": "EC50", "setting": "CB2R-L185^ECL2H; HEK293T membranes", "value": 126, "unit": "nM"}, {"measurement": "Emax (%)", "setting": "CB2R-L185^ECL2H; at 10 µM compared to WT", "value": "217 ± 21", "unit": "%"}, {"measurement": "Emax (%)", "setting": "CB2R WT; maximum effect at 10 µM compared to WT (Suppl. Table 6)", "value": "103 ± 3", "unit": "%"}, {"measurement": "Emax (%)", "setting": "CB2R WT; maximum effect compared to CP55,940", "value": "76 ± 1", "unit": "%"}, {"measurement": "EC50", "setting": "CB2R WT; [35S]GTPγS, HEK293T membranes transiently expressing CB2R WT", "value": 126, "unit": "nM"}, {"measurement": "[35S]GTPγS binding, percentage of CP55,940", "setting": "CB2R WT; log [agonist] (M) -5", "value": "76.96% and 72.92% and 77.27%"}, {"measurement": "[35S]GTPγS binding, percentage of CP55,940", "setting": "CB2R WT; log [agonist] (M) -6", "value": "47.32% and 54.96% and 57.48%"}, {"measurement": "[35S]GTPγS binding, percentage of CP55,940", "setting": "CB2R WT; log [agonist] (M) -7", "value": "8.09% and 19.22% and 13.61%"}, {"measurement": "[35S]GTPγS binding, percentage of CP55,940", "setting": "CB2R WT; log [agonist] (M) -8", "value": "7.23% and 9.98% and 7.81%"}, {"measurement": "[35S]GTPγS binding, percentage of CP55,940", "setting": "CB2R WT; log [agonist] (M) -9", "value": "-12.88% and -8.32% and -11.10%"}, {"measurement": "[35S]GTPγS binding, percentage of CP55,940", "setting": "CB2R WT; log [agonist] (M) -10", "value": "-4.61% and 18.64% and -19.45%"}, {"measurement": "Displacement (%) of [3H]CP55,940", "setting": "CB1R QuadrupleTM1,7 [1]; CB1R Quadruple TM1,7, 10 µM compound", "value": "26 ± 10", "unit": "%"}, {"measurement": "percentage specific [3H]CP55,940 binding", "setting": "CB1R QuadrupleTM1,7 [1]; CB1R QuadrupleTM1,7, 10 µM ligand, replicates 1-3", "value": "70.97 percentage and 58.02 percentage and 92.08 percentage"}, {"measurement": "G protein activation, fold over its basal", "setting": "CB1R-H270^ECL2L; CB1R H270ECL2L, individual replicates", "value": "1.101 fold over its basal and 1.221 fold over its basal and 1.256 fold over its basal"}, {"measurement": "Agonist-mediated activation", "setting": "CB1R-H270^ECL2L; CB1R H270L, 10 µM agonist", "value": "1.2 ± 0.0", "unit": "fold over its basal"}, {"measurement": "percentage specific [3H]CP55,940 binding", "setting": "CB1R-L359^6.51V", "value": "87.28 percentage and 69.23 percentage and 69.34 percentage"}, {"measurement": "Kd", "setting": "hCB2R; KD = koff/kon, read-out: Kinetic KD", "value": 16.5, "unit": "nM"}, {"measurement": "residence time", "setting": "hCB2R; RT = 1/(60 ∙ koff)", "value": 16, "unit": "min"}, {"measurement": "percentage specific [3H]RO6957022 binding (competition association)", "setting": "hCB2R; Time 1 min", "value": "5.83% and -3.44% and 7.40%"}, {"measurement": "percentage specific [3H]RO6957022 binding (competition association)", "setting": "hCB2R; Time 3 min", "value": "23.25% and 21.50% and 9.87%"}, {"measurement": "percentage specific [3H]RO6957022 binding (competition association)", "setting": "hCB2R; Time 5 min", "value": "29.56% and 33.35% and 22.10%"}, {"measurement": "percentage specific [3H]RO6957022 binding (competition association)", "setting": "hCB2R; Time 7 min", "value": "39.12% and 26.72% and 31.06%"}, {"measurement": "percentage specific [3H]RO6957022 binding (competition association)", "setting": "hCB2R; Time 10 min", "value": "41.53% and 33.11% and 35.03%"}, {"measurement": "percentage specific [3H]RO6957022 binding (competition association)", "setting": "hCB2R; Time 20 min", "value": "47.20% and 49.02% and 32.99%"}, {"measurement": "percentage specific [3H]RO6957022 binding (competition association)", "setting": "hCB2R; Time 30 min", "value": "52.67% and 57.37% and 51.93%"}, {"measurement": "percentage specific [3H]RO6957022 binding (competition association)", "setting": "hCB2R; Time 45 min", "value": "51.61% and 58.35% and 49.36%"}, {"measurement": "percentage specific [3H]RO6957022 binding (competition association)", "setting": "hCB2R; Time 60 min", "value": "51.74% and 74.63% and 45.92%"}, {"measurement": "percentage specific [3H]RO6957022 binding (competition association)", "setting": "hCB2R; Time 90 min", "value": "53.57% and 66.52% and 52.04%"}, {"measurement": "percentage specific [3H]RO6957022 binding (competition association)", "setting": "hCB2R; Time 120 min", "value": "61.01% and 70.76% and 73.93%"}, {"measurement": "ET (engagement time)", "setting": "hCB2R; at 1 µM agonist, ET = 1/(kon ∙ 1 × 10-6)", "value": "16.0 ± 2.82", "unit": "s"}, {"measurement": "EC50", "setting": "CB2R-Quadruple^TM1,7; Quadruple TM1,7 mutant, <5 when curve fit not finished", "value": 631, "unit": "nM"}, {"measurement": "Emax (%)", "setting": "CB2R-Quadruple^TM1,7; Quadruple TM1,7 mutant, at 10 µM compared to WT", "value": "27 ± 5", "unit": "%"}, {"measurement": "[35S]GTPγS binding", "setting": "CB2R-Quadruple^TM1,7; log [ligand] (M) -5", "value": "19.02 percentage of WT and 26.25 percentage of WT and 35.32 percentage of WT"}, {"measurement": "[35S]GTPγS binding", "setting": "CB2R-Quadruple^TM1,7; log [ligand] (M) -6", "value": "18.24 percentage of WT and 27.33 percentage of WT and 15.57 percentage of WT"}, {"measurement": "[35S]GTPγS binding", "setting": "CB2R-Quadruple^TM1,7; log [ligand] (M) -7", "value": "-20.33 percentage of WT and 5.34 percentage of WT"}, {"measurement": "[35S]GTPγS binding", "setting": "CB2R-Quadruple^TM1,7; log [ligand] (M) -8", "value": "-17.90 percentage of WT and -15.60 percentage of WT and -7.82 percentage of WT"}, {"measurement": "[35S]GTPγS binding", "setting": "CB2R-Quadruple^TM1,7; log [ligand] (M) -9", "value": "-5.85 percentage of WT and 6.13 percentage of WT and -3.78 percentage of WT"}, {"measurement": "Agonist-mediated activation", "setting": "CB1R QuadrupleTM1,7 [2]; CB1R Quadruple TM1,7, 10 µM agonist", "value": "1.2 ± 0.1", "unit": "fold over its basal"}, {"measurement": "G protein activation, fold over its basal", "setting": "CB1R QuadrupleTM1,7 [2]; CB1R QuadrupleTM1,7, individual replicates", "value": "1.167 fold over its basal and 1.343 fold over its basal and 1.151 fold over its basal"}]}
